Experimental data from patent publication US8586292B2, “Methods for identifying compounds for treatment of thrombotic condition” (priority 2002, dated 2013).

Tests used:
Type in all cases: cell-based
platelets [1] = assay: Clot lysis in the presence of platelets (t-PA/Glu-plasminogen, fluorescent fibrinogen release); conditions: for Clot Lysis in the Presence of Platelets (value relative to control designated as 1): 90 min 37 C, t-PA 2 U/ml, Glu-plasminogen 20 ug/ml; for fibrinolysis of clots, of that of the control: clots made and lysed in the presence of platelets
Method: To assess the effect of piceatannol and calpeptin on the fibrinolytic effect of t-PA and plasminogen in the presence of platelets, we designed a two step procedure by modifying the fibrinolytic assay as described by Fay et al. (Blood, 83, 351-356, 1994). First, we developed a retracted clot in the presence of fluorescence tagged fibrinogen in tubes containing platelets by the addition of thrombin. The residual fluid was taken out and platelets were added to each tube either treated with piceatannol, calpeptin and the vehicle control DMSO respectively. Glu-plasminogen, t-PA were added and the reaction was started by the addition of thrombin. After 90 minutes, the fluid from each tube was taken out and put in separate microfuge tubes followed by centrifugation. The detection of fluorescence in the supernatant was a measure of clot lysis. To form the clot, Oregon green 488 conjugated fibrinogen (fluorescent, from Molecular Probe) at 300 nM final concentration, 1 mM Ca^2+, 2 mM Mg^2+, was added to platelets at 2×10^8/ml concentration in 0.5 ml. The clot retraction was started with the addition of 0.5 unit/ml thrombin. The tubes were kept at 37° C. in dark for 1 hour until the clot retraction was complete. The residual fluid was taken out from each tube. To initiate clot lysis, platelets at 2×10^8/ml concentration were treated with either 40 ug/ml piceatannol, 200 ug/ml calpeptin or vehicle DMSO. In 0.25 ml of each, Glu-plasminogen was added to a final concentration of 20 μg/ml, and t-PA was added to a final concentration of 2 U/ml. The reaction was started with the addition of thrombin at final concentration of 0.5 U/ml. The tubes were kept at 37° C. for 90 minutes. The fluid from each tube was taken in separate microfuge tubes and centrifuged at cold at 14000 rpm for 10 minutes. The supernatants were isolated. Each supernatant was diluted to 5 times and fluorescence in each sample was measured at excitation: 495 nm and emission: 525 nm.

platelets [2] = assay: Inhibition of clot retraction (thrombin-induced, platelets with fibrinogen)
Method: Platelets (2×10^8 platelets/ml) were incubated with either piceatannol at a final concentration of 40 μg/ml, calpeptin at a final concentration of 200 μg/ml, or vehicle DMSO for 30 minutes in the dark. To each sample, fibrinogen was added to a final concentration of 300 nM, 1 mM Ca^2+, and 2 mM Mg^2+, 10 minutes prior to the addition of 0.5 unit/ml of thrombin. The clots were incubated for 30 minutes at 37° C. and then transferred to ice before taking photographs. Tubes: 1, vehicle control treated sample without the addition of thrombin; 2, vehicle control treated sample; 3, piceatannol treated sample; 4, calpeptin treated sample.
To determine the effect of the syk kinase inhibitor piceatannol and the calpain inhibitor calpeptin, the following experiments were carried out. Platelets (2×10^8 platelets/ml) were incubated with either piceatannol at a final concentration of 40 μg/ml, calpeptin at a final concentration of 200 μg/ml, or vehicle DMSO for 30 minutes in the dark. To each sample, fibrinogen was added to a final concentration of 300 nM, 1 mM Ca^2+, and 2 mM Mg^2+, 10 minutes prior to the addition of 0.5 unit/ml of thrombin. The clots were incubated for 30 minutes at 37° C. and then transferred to ice before taking photographs. […]

platelets [3] = assay: Platelet aggregation (TRAP-stimulated, recorded together with NO production); conditions: 200 ug/ml
Method: (§1) FIGS. 2A and 2B show the effect of calpeptin on NO production. Platelets at 2×10^8/ml were pre-incubated with either calpeptin at final concentration 200 ug/ml or vehicle DMSO for 30 minutes in the dark. To a final volume of 0.5 ml, fibrinogen was added to a final concentration of 1 mg/ml, 1 mM Ca^2+, and 2 mM Mg^2+, and GPRP (gly-pro-arg-pro) to a final concentration of 20 μM. The tube was placed in the NO-501 monitor to measure NO production and the platelets are stirred with a magnetic stirrer. TRAP (Thrombin Receptor Agonist Peptide) at a final concentration of 20 μM was added to start the reaction. […] The readings were taken for 300 seconds (5 minutes).
as §1, with “Platelets” for “FIGS. 2A and 2B show the effect of calpeptin on NO production. Platelets”, “GPRP” for “GPRP (gly-pro-arg-pro)”

platelets [4] = assay: Nitric oxide production from platelets (NO-501 monitor, TRAP-stimulated); conditions: 200 ug/ml, 20 uM TRAP, read for 300 seconds
Method: as §1, with “[…])” for “GPRP (gly-pro-arg-pro)”, “minutes). FIGS. 3A and 3B show the effect of piceatannol on NO production. Platelets at 2×10^8/ml were pre-incubated with either piceatannol at final concentration 2.5 ug/ml or vehicle DMSO for 30 minutes in the dark. To a final volume of 0.5 ml, fibrinogen was added to a final concentration of 1 mg/ml, 1 mM Ca^2+, and 2 mM Mg^2+, and GPRP to a final concentration of 20 μM. The tube was placed in the NO-501 monitor to measure NO production and the platelets are stirred with a magnetic stirrer. TRAP (Thrombin Receptor Agonist Peptide) at a final concentration of 20 μM was added to start the reaction. […] The readings were taken for 300 seconds (5 minutes). […]” for “minutes).”

Oc1cc(O)cc(/C=C/c2ccc(O)c(O)c2)c1 [piceatannol]
Clot Lysis in the Presence of Platelets (value relative to control designated as 1) (platelets [1]; 40 ug/ml): 6.2 | fibrinolysis of clots, of that of the control (platelets [1]; 40 ug/ml): about 600%

CC(C)(C)n1nc(-c2ccc(Cl)cc2)c2c(N)ncnc21 [PP2]
effect on clot retraction (platelets [2]; 10 uM (data not shown)): did not have any effect on clot retraction

CCCC[C@@H](C=O)NC(=O)[C@H](CC(C)C)NC(=O)OCc1ccccc1 [calpeptin]
effect on platelet aggregation (platelets [3]): inhibits both platelet aggregation and clot retraction | NO production (platelets [4]): increased and sustained NO production | effect on clot retraction (platelets [2]; 200 ug/ml, 30 min pre-incubation, 0.5 unit/ml thrombin, 30 min 37 C): inhibited platelet mediated clot retraction | Clot Lysis in the Presence of Platelets (value relative to control designated as 1) (platelets [1]; 200 ug/ml): 6.2 | fibrinolysis of clots, of that of the control (platelets [1]; 200 ug/ml): about 600%
